Measured values as given in patent US6376497B1, “Antifungal azole derivatives having a fluorinated vinyl group and process for preparing same” (Korea Research Institute of Chemical Technology, priority 1999, dated 2002).

Experiments:
Test in all cases: In vitro antifungal activity, microbroth dilution MIC
Assay type in all cases: cell-based
[1] = system: Cryptococcus neoformans B. 42419; settings: 4 to 48 hours; for Minimal inhibitory concentration (MIC): Cry. neoformans B. 42419, RPMI-1640, 35° C.; for Minimal inhibitory concentration(MIC), Cry. neoformans B. 42419: RPMI-1640, 35° C., no growth observed
Experimental: (§1) In vitro antifungal activities of the inventive antifungal compounds were evaluated using the test strains shown in Table VIII by the following microbroth dilution method which is a modified version of the procedure recommended by National Committee for Clinical Laboratory Standards(see National Committee for Clinical Laboratory Standards, 1992, Reference methods for broth dilution antifungal susceptibility testing of yeasts, Proposed standard M27-P, National Committee for clinical laboratory standards, Villanova, Pa; and National Committee for Clinical Laboratory Standards, 1995, Reference methods for broth dilution antifungal susceptibility testing of yeasts. Tentative standard M27-T, National Committee for clinical laboratory standards, Villanova, Pa).
(§2) Sabourad Dextrose Agar(Difco) was used as a culture medium, and RPMI-1640 broth(Sigma. Co. w/L-glutamine, wo/NaHCO3)(0.165 M MOPS, pH 7.0), as a dilution medium.
(§3) Each of the test strains were subcultured in Sabourad Dextrose Agar medium twice and a stain sample was taken from prominent colonies and suspended in sterile physiological saline solution in a cap tube. The turbidity of the suspension was adjusted to that of the Mcfarland 0.5 standard sample(approximately 10^6 CFU/ml). Then the suspension was diluted 500-fold with sterile RPMI-1640 liquid medium to 2×10^3 CFU/ml.
(§4) Each of the test compounds(the compounds obtained in Examples 1 to 150 and comparative compounds, i.e., fluconazole(FCZ) and itraconazole (ICZ)), was dissolved in DMSO to give a stock solution having a concentration of 4000 μg/ml and the stock solution was successively diluted to obtain test solutions having test compound concentrations of 200, 100, 50, 25, 12.5, 6.25, 3.13, 1.56, 0.78, 0.39, 0.20 and 0.10 μg/ml, respectively.
(§5) 0.1 ml portion of the test solutions were added to the wells of a sterile 96 well plate. Then, 0.1 ml portion of each of the test strain solutions were added successively to the wells and the plate was incubated at 35° C. for 4 to 48 hours.
(§6) Minimal inhibitory concentration(MIC) of each compound was defined as the concentration of the test compound where no growth of the strain could be observed.

[2] = system: Aspergillus niger A. 16404; settings: for Minimal inhibitory concentration (MIC): A. niger A. 16404, RPMI-1640, 35° C.; for Minimal inhibitory concentration(MIC), A. niger A. 16404: RPMI-1640, 35° C., no growth observed
Experimental: as §1, §2, §3, §4, §5, §6

[3] = system: Candida albicans IFO. 1385; settings: 4 to 48 hours; for Minimal inhibitory concentration (MIC): C. albicans IFO. 1385, RPMI-1640, 35° C.; for Minimal inhibitory concentration(MIC), C. albicans IFO. 1385: RPMI-1640, 35° C., no growth observed
Experimental: as §1, §2, §3, §4, §5, §6

[4] = system: Aspergillus furnigatus B. 19119; settings: for Minimal inhibitory concentration (MIC): A furnigatus B. 19119, RPMI-1640, 35° C.; for Minimal inhibitory concentration(MIC), A furnigatus B. 19119: RPMI-1640, 35° C., no growth observed
Experimental: as §1, §2, §3, §4, §5, §6

[5] = system: Candida tropicalis A. 13803; settings: 4 to 48 hours; for Minimal inhibitory concentration (MIC): C. tropicalis A. 13803, RPMI-1640, 35° C.; for Minimal inhibitory concentration(MIC), C. tropicalis A. 13803: RPMI-1640, 35° C., no growth observed
Experimental: as §1, §2, §3, §4, §5, §6

[6] = system: Trichophyton mentagrophytes B. 32663; settings: for Minimal inhibitory concentration (MIC): T. mentagrophytes B. 32663, RPMI-1640, 35° C.; for Minimal inhibitory concentration(MIC), T. mentagrophytes B. 32663: RPMI-1640, 35° C., no growth observed
Experimental: as §1, §2, §3, §4, §5, §6

[7] = system: Cryptococcus neoformans IFM. 40092; settings: for Minimal inhibitory concentration (MIC): Cry. neoformans IFM. 40092, RPMI-1640, 35° C.; for Minimal inhibitory concentration(MIC), Cry. neoformans IFM. 40092: RPMI-1640, 35° C., no growth observed
Experimental: as §1, §2, §3, §4, §5, §6

Candida krusei K. 11655 = settings: 4 to 48 hours; for Minimal inhibitory concentration (MIC): C. krusei K. 11655, RPMI-1640, 35° C.; for Minimal inhibitory concentration(MIC), C. krusei K. 11655: RPMI-1640, 35° C., no growth observed
Experimental: as §1, §2, §3, §4, §5, §6

[8] = system: Trichophyton mentagrophytes A. 9129; settings: for Minimal inhibitory concentration (MIC): T. mentagrophytes A. 9129, RPMI-1640, 35° C.; for Minimal inhibitory concentration(MIC), T. mentagrophytes A. 9129: RPMI-1640, 35° C., no growth observed
Experimental: as §1, §2, §3, §4, §5, §6

[9] = system: Candida albicans A. 10231; settings: 4 to 48 hours; for Minimal inhibitory concentration (MIC): C. albicans A. 10231, RPMI-1640, 35° C.; for Minimal inhibitory concentration(MIC), C. albicans A. 10231: RPMI-1640, 35° C., no growth observed
Experimental: as §1, §2, §3, §4, §5, §6

[10] = system: Cryptococcus neoformans A. 34144; settings: for Minimal inhibitory concentration (MIC): Cry. neoformans A. 34144, RPMI-1640, 35° C.; for Minimal inhibitory concentration(MIC), Cry. neoformans A. 34144: RPMI-1640, 35° C., no growth observed
Experimental: as §1, §2, §3, §4, §5, §6

Candida albicans C1-2 = settings: 4 to 48 hours; for Minimal inhibitory concentration (MIC): C. albicans C1-2, RPMI-1640, 35° C.; for Minimal inhibitory concentration(MIC), C. albicans C1-2: RPMI-1640, 35° C., no growth observed
Experimental: as §1, §2, §3, §4, §5, §6

[11] = system: Candida parapsitosis A. 7330; settings: 4 to 48 hours; for Minimal inhibitory concentration (MIC): C. parapsitosis A. 7330, RPMI-1640, 35° C.; for Minimal inhibitory concentration(MIC), C. parapsitosis A. 7330: RPMI-1640, 35° C., no growth observed
Experimental: as §1, §2, §3, §4, §5, §6

[12] = system: Candida pseudotropicalis K. 11658; settings: 4 to 48 hours; for Minimal inhibitory concentration (MIC): C. pseudotropicalis K. 11658, RPMI-1640, 35° C.; for Minimal inhibitory concentration(MIC), C. pseudotropicalis K. 11658: RPMI-1640, 35° C., no growth observed
Experimental: as §1, §2, §3, §4, §5, §6

[13] = system: Torulopsis glabrata B. 16205; settings: 4 to 48 hours; for Minimal inhibitory concentration (MIC): T. glabrata B. 16205, RPMI-1640, 35° C.; for Minimal inhibitory concentration(MIC), T. glabrata B. 16205: RPMI-1640, 35° C., no growth observed
Experimental: as §1, §2, §3, §4, §5, §6

Minimal inhibitory concentration (MIC) [1] [µg/mL] | Minimal inhibitory concentration (MIC) ([2]; 4 to 48 hours) [µg/mL] | Minimal inhibitory concentration (MIC) [3] [µg/mL] | Minimal inhibitory concentration (MIC) ([4]; 4 to 48 hours) [µg/mL] | Minimal inhibitory concentration (MIC) [5] [µg/mL] | Minimal inhibitory concentration (MIC) ([6]; 4 to 48 hours) [µg/mL] | Minimal inhibitory concentration (MIC) ([7]; 4 to 48 hours) [µg/mL] | Minimal inhibitory concentration (MIC) (Candida krusei K. 11655) [µg/mL] | Minimal inhibitory concentration (MIC) ([8]; 4 to 48 hours) [µg/mL] | Minimal inhibitory concentration (MIC) [9] [µg/mL] | Minimal inhibitory concentration (MIC) ([10]; 4 to 48 hours) [µg/mL] | Minimal inhibitory concentration (MIC) (Candida albicans C1-2) [µg/mL] | Minimal inhibitory concentration (MIC) [11] [µg/mL] | Minimal inhibitory concentration (MIC) [12] [µg/mL] | Minimal inhibitory concentration (MIC) [13] [µg/mL] | SMILES | further results
1.56 | 25.0 | 0.78 | 12.5 | 25.0 | 1.56 | 0.20 | 25.0 | 6.25 | 12.5 | 1.56 | 12.5 | 25.0 | 25.0 | 6.25 | Cc1ccc(C=C(F)OCC2COC(Cn3ccnc3)(c3ccc(F)cc3F)O2)cc1C (mixture of isomers) [Ex. 40] | 
 |  |  |  |  |  |  |  |  |  |  |  |  |  |  | FC(=C(c1cc(Cl)cc(Cl)c1)C(F)(F)F)N1CCN(c2ccc(OCC3COC(Cn4ccnc4)(c4ccc(F)cc4F)O3)cc2)CC1 (mixture of isomers) [Ex. 150] | Minimal inhibitory concentration(MIC), Cry. neoformans B. 42419 [1]: 0.39 µg/mL; Minimal inhibitory concentration(MIC), A. niger A. 16404 [2]: 100 µg/mL; Minimal inhibitory concentration(MIC), C. albicans IFO. 1385 [3]: 0.39 µg/mL; Minimal inhibitory concentration(MIC), A furnigatus B. 19119 [4]: 12.5 µg/mL; Minimal inhibitory concentration(MIC), C. tropicalis A. 13803 [5]: >100 µg/mL; Minimal inhibitory concentration(MIC), T. mentagrophytes B. 32663 [6]: ≦0.10 μg/ml; Minimal inhibitory concentration(MIC), Cry. neoformans IFM. 40092 [7]: ≦0.10 μg/ml; Minimal inhibitory concentration(MIC), C. krusei K. 11655 (Candida krusei K. 11655): 0.78 µg/mL; Minimal inhibitory concentration(MIC), T. mentagrophytes A. 9129 [8]: 3.13 µg/mL; Minimal inhibitory concentration(MIC), C. albicans A. 10231 [9]: >100 µg/mL; Minimal inhibitory concentration(MIC), Cry. neoformans A. 34144 [10]: 1.56 µg/mL; Minimal inhibitory concentration(MIC), C. albicans C1-2 (Candida albicans C1-2): >100 µg/mL; Minimal inhibitory concentration(MIC), C. parapsitosis A. 7330 [11]: 1.56 µg/mL; Minimal inhibitory concentration(MIC), C. pseudotropicalis K. 11658 [12]: 0.78 µg/mL; Minimal inhibitory concentration(MIC), T. glabrata B. 16205 [13]: 50.0 µg/mL
1.56 | >100 | 0.78 | 25.0 | >100 | 6.25 | 0.39 | 100 | 12.5 | 25.0 | 1.56 | 25.0 | >100 | 50.0 | 6.25 | FC(OCC1COC(Cn2ccnc2)(c2ccc(F)cc2F)O1)=C(c1cccc(C(F)(F)F)c1)C(F)(F)F (mixture of isomers) [Ex. 58] | 
 |  |  |  |  |  |  |  |  |  |  |  |  |  |  | Cc1cc(C)cc(C(=C(F)OCC2COC(Cn3cncn3)(c3ccc(Cl)cc3Cl)O2)C(F)(F)F)c1 (mixture of isomers) [Ex. 83] | Minimal inhibitory concentration(MIC), Cry. neoformans B. 42419 [1]: >100 µg/mL; Minimal inhibitory concentration(MIC), A. niger A. 16404 ([2]; 4 to 48 hours): >100 µg/mL; Minimal inhibitory concentration(MIC), C. albicans IFO. 1385 [3]: >100 µg/mL; Minimal inhibitory concentration(MIC), A furnigatus B. 19119 ([4]; 4 to 48 hours): >100 µg/mL; Minimal inhibitory concentration(MIC), C. tropicalis A. 13803 [5]: >100 µg/mL; Minimal inhibitory concentration(MIC), T. mentagrophytes B. 32663 ([6]; 4 to 48 hours): >100 µg/mL; Minimal inhibitory concentration(MIC), Cry. neoformans IFM. 40092 ([7]; 4 to 48 hours): 1.56 µg/mL; Minimal inhibitory concentration(MIC), C. krusei K. 11655 (Candida krusei K. 11655): >100 µg/mL; Minimal inhibitory concentration(MIC), T. mentagrophytes A. 9129 ([8]; 4 to 48 hours): >100 µg/mL; Minimal inhibitory concentration(MIC), C. albicans A. 10231 [9]: >100 µg/mL; Minimal inhibitory concentration(MIC), Cry. neoformans A. 34144 ([10]; 4 to 48 hours): >100 µg/mL; Minimal inhibitory concentration(MIC), C. albicans C1-2 (Candida albicans C1-2): >100 µg/mL; Minimal inhibitory concentration(MIC), C. parapsitosis A. 7330 [11]: >100 µg/mL; Minimal inhibitory concentration(MIC), C. pseudotropicalis K. 11658 [12]: >100 µg/mL; Minimal inhibitory concentration(MIC), T. glabrata B. 16205 [13]: >100 µg/mL
1.56 | >100 | 0.39 | 12.5 | 50.0 | 1.56 | 0.39 | 12.5 | 6.25 | 25.0 | 1.56 | 25.0 | 12.5 | 6.25 | 6.25 | CCOc1ccc(C=C(F)OCC2COC(Cn3ccnc3)(c3ccc(F)cc3F)O2)cc1 (mixture of isomers) [Ex. 44] | 
1.56 | 6.25 | 3.13 | 6.25 | >100 | 0.39 | 0.39 | 12.5 | 0.78 | 25.0 | 3.13 | 25.0 | >100 | 6.25 | 25 | FC(=Cc1ccccc1)OCC1COC(Cn2cncn2)(c2ccc(Cl)cc2Cl)O1 (mixture of isomers) [Ex. 69] | 
1.56 | 50.0 | 0.39 | 12.5 | 25.0 | 1.56 | 0.20 | 25.0 | 6.25 | 12.5 | 1.56 | 12.5 | 12.5 | 12.5 | 6.25 | CCc1ccc(C=C(F)OCC2COC(Cn3ccnc3)(c3ccc(F)cc3F)O2)cc1 (mixture of isomers) [Ex. 39] | 
